# Source: patent US20230321055A1, “PREVENTIVE TREATMENT OF MIGRAINE” (priority 2022, published 2023)
# Test system: participants with chronic migraine
# Test: Same phase 3 study: patient-reported outcomes (MSQ v2.1, AIM-D, HIT-6, WPAI, PGI-C, treatment satisfaction, EQ-5D-5L)
# Format: in vivo, human
# Settings: for Change from Baseline in HIT-6 total score at Week 12, LS Mean / Change from Baseline in HIT-6 total score at Week 12, LSMD Atogepant vs. Placebo / Change from Baseline in MSQ v2.1 Role Function - Restrictive Domain Score at Week 12, LS Mean / Change from Baseline in MSQ v2.1 Role Function - Restrictive Domain Score at Week 12, LSMD Atogepant vs. Placebo: Off-Treatment Hypothetical Estimand population
# Source text: The MSQ v2.1 is a 14-item questionnaire designed to measure health-related quality of life impairments attributed to migraine in the past 4 weeks. It is divided into three domains: Role Function Restrictive assesses how migraines limit one's daily social and work-related activities; Role Function Preventive assesses how migraines prevent these activities; and the Emotional Function domain assesses the emotions associated with migraine. Participants respond to items using a 6-point scale ranging from “none of the time” to “all of the time.” Raw dimension scores are computed as a sum of item responses and rescaled to a 0 to 100 scale, where higher scores indicate better quality of life.
# The AIM-D (Activity Impairment in Migraine — Diary) is an 11-function daily diary measure that assesses the impact of migraine. It is comprised of two domains that evaluate performance of daily activities (PDA: 7 items) and physical impairment (PI: 4 items). […] The AIM-D was developed as an electronic daily diary with the same set of questions administered in headache and non-headache versions. Raw domain scores are rescaled to a 0 to 100 scale, where higher scores indicate greater impact of migraine.
# The HIT-6 (Headache Impact Test) is a 6-question assessment used to measure the impact headaches have on a participant's ability to function on the job, at school, at home, and in social situations. It assesses the effect that headaches have on normal daily life and the participant's ability to function. Responses are based on frequency using a 5-point scale ranging from “never” to “always.” The HIT-6 total score, which ranges from 36 to 78, is the sum of the responses—each of which is assigned a score ranging from 6 points (never) to 13 points (always)—with higher scores indicating larger impact due to headache. Yang et al., “Validation of the Headache Impact Test (HIT-6™) across episodic and chronic migraine”, Cephalalgia, 2011 February; 31(3): 357−367.
# Secondary endpoints included change from baseline in mean monthly headache days across the 12 week treatment period; change from baseline in mean monthly acute medication use days across the 12-week treatment period; at least a 50% reduction in mean monthly migraine days across the 12-week treatment period; change from baseline in MSQ v2.1 Role Function-Restrictive domain score at week 12; change from baseline in mean AIM-D monthly functioning and activity impairment score across the 12-week treatment period; and change from baseline in HIT-6 total score at week 12.
# FIG. 8 and Table 5 show the change from baseline in AIM-D Performance of Daily Activities at Weeks 1-4, 5-8, and 9-12 and across 12 weeks. FIG. 9 and Table 6 show change from baseline in WPAI Overall Work Productivity Loss at Weeks 1-4, 5-8, and 9-12. […] A graphical approach with weighted Bonferroni test procedure was used to control the overall type I error rate at the 2-sided α=0.05 level for key secondary endpoint comparisons between each atogepant dose vs placebo. For exploratory endpoints, nominal P values were provided without adjusting for multiplicity.
# Patient-reported outcome (PRO) measures included the Performance of Daily Activities (PDA) and Physical Impairment (PI) domains of the Activity Impairment in Migraine-Diary (AIM-D), and the 5-level European Quality of Life-5 Dimension (EQ-5D-5L) descriptive system and visual analogue scale (VAS), implemented via daily diary. Scores in each domain were transformed to a 0-100 scale with higher scores indicating a greater burden from migraine. Changes in PDA and PI scores and the proportion of participants achieving clinically meaningful within-patient change in the PDA domain (≥12.5 points) and PI domain (≥10 points) were compared between participants who received atogepant vs placebo. EQ-5D-5L measures 5 dimensions of QOL, including mobility, self-care, usual activities, pain/discomfort, and anxiety/depression. […]
# [1] = 30 mg BID, week 12, mITT, listed as atogepant
# [2] = 60 mg QD, week 12, mITT, listed as atogepant
# [3] = 60 mg, within the first 2 weeks
# [4] = both doses (30 mg BID, 60 mg QD), all time points
smiles,measurement,setting,value
"C[C@@H]1[C@H](c2c(F)ccc(F)c2F)C[C@H](NC(=O)c2cnc3c(c2)C[C@@]2(C3)C(=O)Nc3ncccc32)C(=O)N1CC(F)(F)F [Atogepant, (S)—N—((3S,5S,6R)-6-methyl-2-oxo-1-(2,2,2-trifluoroethyl)-5-(2,3,6-trifluorophenyl)piperidin-3-yl)-2′-oxo-1′,2′,5,7-tetrahydrospiro[cyclopenta[b]pyridine-6,3′-pyrrolo[2,3-b]pyridine]-3-carboxamide]","Change from Baseline in HIT-6 total score at Week 12, LS Mean",30 mg BID,−8.47
same,"Change from Baseline in HIT-6 total score at Week 12, LSMD Atogepant vs. Placebo",30 mg BID,−3.30
same,"Change from Baseline in MSQ v2.1 Role Function - Restrictive Domain Score at Week 12, LS Mean",30 mg BID,24.74
same,"Change from Baseline in MSQ v2.1 Role Function - Restrictive Domain Score at Week 12, LSMD Atogepant vs. Placebo",30 mg BID,7.43
same,"Change from Baseline in WPAI Overall Work Productivity Loss, LSMD vs placebo","30 mg BID, Week 4",−12.69
same,"Change from Baseline in WPAI Overall Work Productivity Loss, LSMD vs placebo","30 mg BID, Week 8",−8.61
same,"Change from Baseline in AIM-D Performance of Daily Activities, LSMD vs placebo","30 mg BID, Weeks 1-4",−5.44
same,"Change from Baseline in AIM-D Performance of Daily Activities, LSMD vs placebo","30 mg BID, Weeks 5-8",−4.75
same,"Change from Baseline in AIM-D Performance of Daily Activities, LSMD vs placebo","30 mg BID, Weeks 9-12",−4.36
same,"Change from baseline in MSQ v2.1 role function restrictive domain score at week 12, LS Mean","30 mg BID, mITT",25.15
same,"Change from baseline in MSQ v2.1 role function restrictive domain score at week 12, LSMD Atogepant vs. Placebo","30 mg BID, mITT",7.96
same,"Change from baseline in mean monthly performance of daily activities domain score of the AIM-D across the 12-week treatment period, LS Mean","30 mg BID, mITT",−14.29
same,"Change from baseline in mean monthly performance of daily activities domain score of the AIM-D across the 12-week treatment period, LSMD Atogepant vs. Placebo","30 mg BID, mITT",−4.85
same,"Change from baseline in mean monthly physical impairment domain score of the AIM-D across the 12-week treatment period, LS Mean","30 mg BID, mITT",−12.11
same,"Change from baseline in mean monthly physical impairment domain score of the AIM-D across the 12-week treatment period, LSMD Atogepant vs. Placebo","30 mg BID, mITT",−4.19
same,"Change from Baseline in WPAI Overall Work Productivity Loss, LSMD vs placebo","30 mg BID, week 12",−7.94
same,"MSQ v2.1 Emotional Function domain score change from baseline, LSMD vs placebo","30 mg BID, week 12",6.36
same,"MSQ v2.1 Role Function-Preventive domain score change from baseline, LSMD vs placebo","30 mg BID, week 12",8.10
same,PGI-C responders,"30 mg BID, week 12, mITT",153/239
same,"PGI-C responders (much better or very much better), Percentage","30 mg BID, week 12, mITT",64.0%
same,"PGI-C responders, OR (95% CI) vs placebo","30 mg BID, week 12, mITT","3.36 (2.29, 4.94)"
same,"Satisfaction with study medication (satisfied or extremely satisfied), Percentage","30 mg BID, week 12, mITT",64.6%
same,Satisfaction with study medication responders,"30 mg BID, week 12, mITT",148/229
same,"Satisfaction with study medication, OR (95% CI) vs placebo","30 mg BID, week 12, mITT","2.67 (1.82, 3.91)"
same,"PGI-C responders (much better or very much better), Percentage",[1],64.0%
same,"Satisfaction with study medication (satisfied or extremely satisfied), Percentage",[1],64.6%
same,"Change from Baseline in HIT-6 total score at Week 12, LS Mean",60 mg QD,−7.83
same,"Change from Baseline in HIT-6 total score at Week 12, LSMD Atogepant vs. Placebo",60 mg QD,−2.66
same,"Change from Baseline in MSQ v2.1 Role Function - Restrictive Domain Score at Week 12, LS Mean",60 mg QD,23.09
same,"Change from Baseline in MSQ v2.1 Role Function - Restrictive Domain Score at Week 12, LSMD Atogepant vs. Placebo",60 mg QD,5.78
same,"Change from Baseline in WPAI Overall Work Productivity Loss, LSMD vs placebo","60 mg QD, Week 4",−15.26
same,"Change from Baseline in WPAI Overall Work Productivity Loss, LSMD vs placebo","60 mg QD, Week 8",−11.33
same,"Change from Baseline in AIM-D Performance of Daily Activities, LSMD vs placebo","60 mg QD, Weeks 1-4",−4.44
same,"Change from Baseline in AIM-D Performance of Daily Activities, LSMD vs placebo","60 mg QD, Weeks 5-8",−3.59
same,"Change from Baseline in AIM-D Performance of Daily Activities, LSMD vs placebo","60 mg QD, Weeks 9-12",−2.11
same,"Change from baseline in MSQ v2.1 role function restrictive domain score at week 12, LS Mean","60 mg QD, mITT",23.33
same,"Change from baseline in MSQ v2.1 role function restrictive domain score at week 12, LSMD Atogepant vs. Placebo","60 mg QD, mITT",6.15
same,"Change from baseline in mean monthly performance of daily activities domain score of the AIM-D across the 12-week treatment period, LS Mean","60 mg QD, mITT",−12.82
same,"Change from baseline in mean monthly performance of daily activities domain score of the AIM-D across the 12-week treatment period, LSMD Atogepant vs. Placebo","60 mg QD, mITT",−3.38
same,"Change from baseline in mean monthly physical impairment domain score of the AIM-D across the 12-week treatment period, LS Mean","60 mg QD, mITT",−10.63
same,"Change from baseline in mean monthly physical impairment domain score of the AIM-D across the 12-week treatment period, LSMD Atogepant vs. Placebo","60 mg QD, mITT",−2.71
same,participants achieving clinically relevant reduction with AIM-D PDA of ≥12.5,"60 mg QD, week 1",42.9%
same,participants achieving clinically relevant reduction with AIM-D PI of ≥10,"60 mg QD, week 1",43.7%
same,"AIM-D PDA change from baseline, LSMD vs placebo","60 mg QD, week 1, mITT",−5.83
same,"AIM-D PI change from baseline, LSMD vs placebo","60 mg QD, week 1, mITT",−4.12
same,"Change from Baseline in WPAI Overall Work Productivity Loss, LSMD vs placebo","60 mg QD, week 12",−9.64
same,"MSQ v2.1 Emotional Function domain score change from baseline, LSMD vs placebo","60 mg QD, week 12",6.81
same,"MSQ v2.1 Role Function-Preventive domain score change from baseline, LSMD vs placebo","60 mg QD, week 12",6.86
same,PGI-C responders,"60 mg QD, week 12, mITT",130/246
same,"PGI-C responders (much better or very much better), Percentage","60 mg QD, week 12, mITT",52.8%
same,"PGI-C responders, OR (95% CI) vs placebo","60 mg QD, week 12, mITT","2.16 (1.48, 3.15)"
same,"Satisfaction with study medication (satisfied or extremely satisfied), Percentage","60 mg QD, week 12, mITT",59.2%
same,Satisfaction with study medication responders,"60 mg QD, week 12, mITT",138/233
same,"Satisfaction with study medication, OR (95% CI) vs placebo","60 mg QD, week 12, mITT","2.16 (1.49, 3.15)"
same,"PGI-C responders (much better or very much better), Percentage",[2],52.8%
same,"Satisfaction with study medication (satisfied or extremely satisfied), Percentage",[2],59.2%
same,"EQ-5D-5L VAS score, LSMD vs placebo",[3],4.47
same,"mean EQ-5D-5L descriptive system score, LSMD vs placebo",[3],0.04
same,proportion meeting HIT-6 responder criteria (score reduction ≥5 points) vs placebo,"all time points and doses, nominal P<0.001",nominally significantly greater
same,WPAI activity impairment vs. placebo,[4],Nominally significant improvements
same,WPAI presenteeism vs. placebo,[4],Nominally significant improvements
same,WPAI absenteeism vs. placebo,"both doses (30 mg BID, 60 mg QD), weeks 4 and 12",Nominally significant improvements
same,HIT-6 scores vs placebo,"both doses, weeks 4 and 8, nominal P<0.001",nominally significant improvements
